From ChEMBL document CHEMBL5303711, “ECBD screening data for assay EOS300108” (2023) come the findings set out here.

The source made the active and inactive calls. How the calls were made is not given here. Some results are limits rather than exact numbers.

A short description of this series: Cytotoxicity activity against human HepG2 cells assessed by CellTiter-Glo luminescent cell viability assay. Type of series: toxicity, cell-based. Details: assay stage confirmatory assay, source tissue liver. The conditions noted are these: HepG2 cells, read-out: IC50 relative. (In general: In ATP-based viability assays light output follows the ATP content of the culture.)

In the case of `O=C(Nc1ccc(Cl)c(Cl)c1)Nc1ccc(Cl)c(Cl)c1`, the CC50 is 13.1 µM (active).

For `COc1cc2c(NC3CCN(C(C)C)CC3)nc(C3CCCCC3)nc2cc1OCCCN1CCCC1`, the CC50 is 2.4 µM (active).

For the compound `NCCNS(=O)(=O)c1cccc2cnccc12`, the CC50 is 13.2 µM (inactive).

In the case of `O=[N+]([O-])c1ccc(NN=Cc2sc(N3CCOCC3)nc2-c2ccccc2)c(S(=O)(=O)Nc2ccccc2Cl)c1`, the CC50 was 2.7 µM (active).

For the compound `c1ccc(-c2cn3c(n2)CCc2ccc4cccnc4c2-3)cc1`, the CC50 was 4 µM (active).

For `O=S(=O)(NCCNC/C=C/c1ccc(Br)cc1)c1cccc2cnccc12`, the CC50 is 9.7 µM (active).

In the case of `CN(C)S(=O)(=O)c1cccc(-n2sc3ccccc3c2=O)c1`, the CC50 was 9.3 µM (active).

For the compound `CCOc1cc(C(Nc2cc(C)ccn2)c2ccc3cccnc3c2O)ccc1OC` (stereo not given), the CC50 was 3.7 µM (active).

On to `Nc1c(C(=O)NCc2ccco2)c2nc3ccccc3nc2n1CCN1CCCCC1`, for which the CC50 was 8.9 µM (active).

On to `CCC1=NNc2cccc3c(OC)ccc1c23`, for which the CC50 was 8.8 µM (active).

`Cc1ccccc1OCc1n(CC(=O)OC2CC(C)CCC2C(C)C)c2ccccc2[n+]1C` (stereo not given): the CC50 is 4.4 µM (active).

As for `CC(C)(C)C(=O)/C(=C/c1cccc([N+](=O)[O-])c1)n1cncn1`, the CC50 is 0.6 µM (active).

`COc1ccc2c(C)nc(Nc3nc(C)c(C)c(=O)[nH]3)nc2c1`: the CC50 was 6.7 µM (active).

On to `O=C(Oc1c(Cl)cc(Cl)c2cccnc12)c1ccco1`, for which the CC50 was 8 µM (active).

For the compound `O=C(Nc1cccnn1)N1CCC(=Cc2cccc(Oc3ccc(C(F)(F)F)cn3)c2)CC1`, the CC50 was 7.5 µM (active).

On to `Cc1ccc(C)c(-n2sc3cc(F)ccc3c2=O)c1`, for which the CC50 is 6.5 µM (active).

Consider `Cn1cc(/C=C2\C(=O)Nc3cccnc32)c2ccccc21`, for which the CC50 is 8.1 µM (inactive).

Turning to `Cc1cc(Nc2nc(N[C@@H](C)c3ccc(F)cc3)c(C#N)cc2F)n[nH]1`, the CC50 is 2.7 µM (active).

In the case of `NC(=O)c1ccc2[nH]c(-c3ccc(Oc4ccc(Cl)cc4)cc3)nc2c1`, the CC50 was 14.7 µM (inactive).

With `COc1cc(/C=C(\C#N)C(=O)Nc2nnc(C(F)(F)F)s2)ccc1OCc1ccc(C(F)(F)F)cc1C(F)(F)F`, the CC50 is 12 µM (active).

On to `CCN(c1nc(N)c(C(=O)NC(=N)N)nc1Cl)C(C)C`, for which the CC50 is 12.5 µM (active).

Take `Cc1sc2c(c1C)C(c1ccc(Cl)cc1)=N[C@@H](CC(=O)OC(C)(C)C)c1nnc(C)n1-2`: the CC50 is 1.2 µM (active).

As for `CCCCCCCC(=O)N[C@H](CN1CCCC1)[C@H](O)c1ccc2c(c1)OCCO2`, the CC50 was 15.7 µM (inactive).

As for `Cc1c(C(=O)Nc2cccc(C(F)(F)F)c2)cc(-c2ccccc2)n1CCCN1CCOCC1`, the CC50 is 13.9 µM (inactive).

For `CCc1cncnc1N1CCN(Cc2nc3cc(C(F)(F)F)ccc3[nH]2)CC1`, the CC50 was 9.5 µM (active).

With `COc1ccccc1S(=O)(=O)Nc1ccc2c(c1)CN(C)C(=O)N2`, the CC50 was 3.7 µM (active).

For `CCCc1cc(C)[nH]c(=O)c1CNC(=O)c1cc(-c2ccnc(N3CCN(C)CC3)c2)cc2c1cnn2C(C)C`, the CC50 was 6 µM (active).

As to `Cc1cc(Nc2ccc(NC(=O)c3ccc(Nc4ccnc5ccccc45)cc3)cc2)nc(N)n1`, the CC50 was 0.4 µM (active).

With `O=C(CC1Sc2ncnn2C1=O)Nc1ccc(Br)cc1` (stereo not given), the CC50 was 15.3 µM (inactive).

On to `COc1cc2c(NC3CCN(C(C)C)CC3)nc(N3CCC(F)(F)CC3)nc2cc1OCCCN1CCCC1`, for which the CC50 was 3.1 µM (active).

Take `NCC1CCC(CNc2nc(NCc3ccccc3OC(F)(F)F)ncc2[N+](=O)[O-])CC1` (stereo not given): the CC50 was 9.7 µM (active).

Consider `CCNC(=O)c1noc(-c2cc(Cl)c(O)cc2O)c1-c1ccc(OC)cc1`, for which the CC50 was 0.1 µM (active).

As for `Cc1nnsc1C(=O)Nc1ccc(-n2nc(C(F)(F)F)cc2C(F)(F)F)cc1`, the CC50 was 9.9 µM (active).

With `Nc1ncnc2c1ncn2[C@@H]1CC[C@@H](O)[C@H]1O`, the CC50 was 1.6 µM (active).

For the compound `CCCCOc1c(C(=O)c2c(F)cc(C)cc2F)c[nH]c2nncc1-2`, the CC50 was 50 µM (inactive).

In the case of `CCOC(=O)CCNc1cc(N2CCc3ccccc3CC2)nc(-c2ccccn2)n1`, the CC50 is 7.5 µM (active).

As to `C=CCN(C)CCCCCCOc1ccc(C(=O)c2ccc(Br)cc2)c(F)c1`, the CC50 was 2.8 µM (active).

In the case of `N#Cc1ccc(NC(=O)NCc2cnc3scc(-c4ccc(Br)cc4)n23)cc1`, the CC50 was 35 µM (active).

`CCCc1cc(C)[nH]c(=O)c1CNC(=O)c1cc(-c2ccc(N3CCN(C(C)C)CC3)nc2)cc2c1cnn2C(C)C`: the CC50 was 2.6 µM (active).

Take `Cc1cn(CCN2CCN(c3ccccc3-c3cc(C#N)cc(C(=O)NCCCN4CCCC4)c3)CC2)c2ccccc12`: the CC50 was 1.4 µM (active).

For `CN(C)c1nc2c(Br)c(Br)c(Br)c(Br)c2[nH]1`, the CC50 was 50 µM (inactive).

On to `Oc1cc2c(cc1C(c1ccc(C(F)(F)F)cc1)N1CCOCC1)OCO2` (stereo not given), for which the CC50 is 26 µM (inactive).

With `CC(C)Oc1ccc(-c2c[nH]cc2CN(C)CCN)cc1`, the CC50 was 23.3 µM (inactive).

Take `O=C(NCCN1CCC(n2c(=O)[nH]c3ccccc32)CC1)c1cc2cc(F)ccc2[nH]1`: the CC50 is 6.4 µM (active).

For `NC(=O)Nc1sc(-c2ccccc2)cc1C(N)=O`, the CC50 is 7.9 µM (active).

In the case of `CCN1/C(=C/c2ccc3ccccc3[n+]2CC)C=Cc2ccccc21`, the CC50 was 1 µM (active).

Consider `Nc1ccc2c(c1)C(=O)C(=O)c1ccccc1-2`, for which the CC50 is 4.2 µM (active).

Consider `Cc1sc2c(c1C)C(c1ccc(Cl)cc1)=N[C@@H](CC(N)=O)c1nnc(C)n1-2`, for which the CC50 is 0.3 µM (active).

As for `CCC(=O)Nc1cccc(Oc2nc(Nc3ccc(N4CCN(C)CC4)cc3OC)ncc2Cl)c1`, the CC50 was 2.8 µM (active).

`O=C1C(=O)c2cc([N+](=O)[O-])ccc2-c2ccccc21`: the CC50 is 1.5 µM (active).

Turning to `C[C@]12CCC3[C@@H](CC[C@]4(O)C[C@@H](O)CC[C@]34C=O)[C@@]1(O)CC[C@@H]2C1=CC(=O)OC1` (stereo not given in full), the CC50 is 0.4 µM (active).

Turning to `CC1CC[C@@]2(NC1)O[C@H]1C[C@H]3[C@@H]4CC=C5CC(O)CCC5(C)C4CCC3(C)[C@H]1[C@@H]2C` (stereo not given in full), the CC50 was 25.1 µM (inactive).

As to `O=C(Nc1nc2ccc(NC(=O)C34CC5CC(CC(C5)C3)C4)cc2s1)c1ccccc1`, the CC50 was 15 µM (inactive).

Turning to `COc1ccc(N2C(=O)/C(=C\c3ccc(O)c(Br)c3)SC2=S)cc1`, the CC50 is 10.3 µM (active).

For the compound `CCN1/C(=C/C(C)=C/c2sc3ccccc3[n+]2CC)Sc2ccccc21`, the CC50 was 0.4 µM (active).

With `CCC(C)C1OC2(CCC1C)CC1CC(C/C=C(/C)C(OC3CC(OC)C(OC4CC(OC)C(O)C(C)O4)C(C)O3)C(C)/C=C\C=C3\COC4C(O)C(C)=CC(C(=O)O1)C34O)O2` (stereo not given), the CC50 was 11.1 µM (active).

As to `COc1ccc2c(O[C@@H]3C[C@H]4C(=O)N[C@]5(C(=O)NS(=O)(=O)C6CC6)C[C@H]5/C=C\CCCCN(C)C(=O)[C@@H]4C3)cc(-c3nc(C(C)C)cs3)nc2c1C`, the CC50 was 8.6 µM (active).

In the case of `CCN1CCN(C(=O)Cc2ccc(Nc3ncc(F)c(Nc4ccc(C(=O)Nc5ccccc5Cl)cc4)n3)cc2)CC1`, the CC50 is 1.8 µM (active).

As for `COc1cc(C(=O)N2CC[C@@H](O)[C@@H](N)C2)cc2nc(-c3cc4ccccc4n3CC3CC3)n(C)c12`, the CC50 was 6.1 µM (active).

`OCCn1cc(-c2ccc3c(c2)CC/C3=N\O)c(-c2ccncc2)n1`: the CC50 was 1.1 µM (active).

For the compound `COC1=C2C[C@@H](C)C[C@H](OC)[C@H](O)[C@@H](C)/C=C(/C)[C@H](OC(N)=O)[C@@H](OC)/C=C\C=C(\C)C(=O)NC(=CC1=O)C2=O`, the CC50 is < 0.1 µM (active).

For the compound `O=C(N[C@H]1CN2CCC1CC2)c1cc2cccc(Cl)c2s1`, the CC50 is 5.9 µM (active).

Take `Nc1ccc(O)c2ncccc12`: the CC50 was 1.4 µM (active).

For the compound `COc1c(Nc2ncc(Cl)c(N[C@H]3[C@@H](C(N)=O)[C@@H]4C=C[C@H]3C4)n2)ccc2c1CC[C@@H](N1CCOCC1)CC2`, the CC50 was 2 µM (active).

Take `Cc1cc(O)c(-c2ccc([C@@H](C)CN(C)C)cc2)c2c1[nH]c(=O)c1sccc12`: the CC50 was 0.1 µM (active).

As to `c1ccc2c(NCCCCCCNc3c4c(nc5ccccc35)CCCC4)c3c(nc2c1)CCCC3`, the CC50 was 1.2 µM (active).

For the compound `COc1ccc(OC2CCN(CCC(=O)Nc3cccc(F)c3)CC2)cc1`, the CC50 is 14.8 µM (inactive).

Take `O=C1COc2c(CCNCCN(C(=O)CCNCCc3ccc(Cl)c(Cl)c3)C3CCCCC3)ccc(O)c2N1`: the CC50 was 10.5 µM (active).

Turning to `NC(=O)c1cnc2[nH]ccc2c1N[C@@H]1[C@@H]2C[C@@H]3C[C@H]1C[C@@](O)(C3)C2`, the CC50 is 8 µM (active).

Take `CC1(C)CN2C(CS/C(=N\C3CCCCC3)NC3CCCCC3)=CSC2=N1`: the CC50 is 6 µM (active).

On to `NCc1ccc(-c2ccccc2)s1`, for which the CC50 was 5.9 µM (active).

Turning to `CC1(C)N=C(N)N=C(N)N1c1ccc(Br)cc1`, the CC50 was 9.1 µM (inactive).

For the compound `Oc1ccc2c(c1)CC[C@H](c1ccccc1)[C@@H]2c1ccc(OCCN2CCCC2)cc1`, the CC50 was 2.9 µM (active).

For the compound `Nc1nc(NC[C@H]2CC[C@H](CNS(=O)(=O)c3cccc4ccccc34)CC2)nc2ccccc12`, the CC50 was 2 µM (active).

For `CN1C/C=C\CCOc2cccc(c2)-c2ccnc(n2)Nc2cccc(c2)C1`, the CC50 is < 0.1 µM (active).

`Fc1ccc(C(OCCN2CCN(CCCc3ccccc3)CC2)c2ccc(F)cc2)cc1`: the CC50 is 5.7 µM (active).

As to `COc1cccc(C(=O)Nc2ncc(Cc3cccc(C(F)(F)F)c3)s2)c1`, the CC50 was 8 µM (active).

In the case of `CC(=O)NC(c1ccccc1)c1cc(Cl)c2cccnc2c1O` (stereo not given), the CC50 was 1.4 µM (active).

As for `O=C1c2ccccc2-c2n[nH]c3cccc1c23`, the CC50 is 6.2 µM (active).

Regarding `CC1(C)N=C(N)N=C(N)N1c1cccc(Cl)c1`, the CC50 is 0.9 µM (active).
